Data from patent US12208092B2, “Compositions and methods for administering paltusotine to patients with hepatic impairment” (CRINETICS PHARMACEUTICALS, INC., priority 2023, dated 2025).
Where two headings read alike, the source gives them in different places.

Test: Phase 1 hepatic impairment study, plasma PK after single oral 20 mg tablet
Format: in vivo, human
Conditions: for AUC(0-t) / AUC(0-inf) / Cmax / MRT inf / Vd/F / half-life / Tmax: both sexes, human, plasma, oral, 20 mg; for AUC(0-inf): read-out: AUC(0-inf), Mean ± SD; for Cmax: read-out: Cmax, Mean ± SD; for MRT inf: read-out: MRT(0-inf), Median (min, max); for Vd/F: read-out: VZ/F, Mean ± SD; for half-life: read-out: t1/2, Mean ± SD (converted); for Tmax: read-out: tmax, Median (min, max); for AUC(0-inf) Geometric Mean Ratio (90% CI), sensitivity analysis / AUC(0-t) Geometric Mean Ratio (90% CI), sensitivity analysis / Cmax Geometric Mean Ratio (90% CI), sensitivity analysis: matched pairs MMRM with age and BMI
Text: Overall, 36 male and female subjects were enrolled, including 14 subjects with normal hepatic function, 8 subjects with mild stable hepatic impairment (Group 1), 8 subjects with moderate stable hepatic impairment (Group 2), and 6 subjects with severe stable hepatic impairment (Group 3). Healthy subjects with normal hepatic function (Group 4) were matched with hepatically impaired subjects according to sex, age (±10 years), and BMI (±20%). A reasonable attempt was made to match healthy subjects with hepatically impaired subjects in terms of race. Healthy subjects may have matched to more than 1 subject in different hepatic impairment groups but not more than 1 subject within each hepatic impairment group. Healthy subjects were recruited into the study after a sufficient number of hepatically impaired subjects were enrolled in Groups 1, 2, and 3.
The Child-Pugh scale was used to categorize the degree of hepatic impairment for assignment into the mild (score of 5-6), moderate (score of 7-9), and severe hepatic impairment (score of 10-15) groups.
The study included a screening period (Days −28 to −2), check-in (Day −1), and a treatment period (Days 1 to 7). On Day 1, all subjects received a single oral dose of 20 mg of paltusotine (1×20 mg tablet) administered with 240 mL of room temperature water following an overnight fast (nothing to eat or drink except water) of at least 10 hours. Subjects remained fasted and upright (seated or standing) for 4 hours after dosing. Water was permitted as desired except for the period 1 hour before and 1 hour after administration of study drug. Subjects received standardized meals that were scheduled at the same time daily during the study.
Serial blood samples for PK analysis of paltusotine were collected before dosing (0 hour) and up to 144 hours after administration of paltusotine.
Blood samples for analysis of paltusotine concentrations in plasma were collected at the following time points: before dosing (0 hour) and at 0.25, 0.5, 0.75, 1, 1.25, 1.5, 2, 3, 4, 6, 8, 10, 12, 24, 48, 72, 96, 120, and 144 hours after administration of paltusotine.
Pharmacokinetic samples were analyzed using a validated liquid chromatography coupled with tandem mass spectrometry assay for paltusotine in human plasma.
Plasma concentration-time data was analyzed by non-compartmental analysis using Phoenix® WinNonlin® Version 8.3 (Certara USA, Inc., Princeton, NJ).

N#Cc1cccc(-c2ccc3ncc(-c4cc(F)cc(F)c4)c(N4CCC(N)CC4)c3c2)c1O [paltusotine, 3-[4-(4-amino-1-piperidyl)-3-(3,5-difluorophenyl)-6-quinolyl]-2-hydroxybenzonitrile]
AUC(0-t) (mild hepatic impairment, read-out: AUC(0-24), Mean ± SD): 1150 ± 467 ng·h/mL | AUC(0-inf) (mild hepatic impairment): 1880 ± 926 ng·h/mL | AUC(0-t) (mild hepatic impairment, read-out: AUC(0-t), Mean ± SD): 1820 ± 888 ng·h/mL | Cmax (mild hepatic impairment): 133 ± 56.6 ng/mL | MRT inf (mild hepatic impairment): 28.3 h | Vd/F (mild hepatic impairment): 565 ± 348 L | half-life (mild hepatic impairment): 29.5 ± 9.4 h | Tmax (mild hepatic impairment): 1.63 h | AUC(0-t) (moderate hepatic impairment, read-out: AUC(0-24), Mean ± SD): 1050 ± 729 ng·h/mL | AUC(0-inf) (moderate hepatic impairment): 1620 ± 1050 ng·h/mL | AUC(0-t) (moderate hepatic impairment, read-out: AUC(0-t), Mean ± SD): 1580 ± 1040 ng·h/mL | Cmax (moderate hepatic impairment): 100 ± 74.6 ng/mL | MRT inf (moderate hepatic impairment): 25.2 h | Vd/F (moderate hepatic impairment): 1050 ± 1110 L | half-life (moderate hepatic impairment): 31.2 ± 7.93 h | Tmax (moderate hepatic impairment): 2 h | AUC(0-t) (normal hepatic function, read-out: AUC(0-24), Mean ± SD): 1070 ± 545 ng·h/mL | AUC(0-inf) (normal hepatic function): 1840 ± 947 ng·h/mL | AUC(0-t) (normal hepatic function, read-out: AUC(0-t), Mean ± SD): 1780 ± 914 ng·h/mL | Cmax (normal hepatic function): 101 ± 53.7 ng/mL | MRT inf (normal hepatic function): 34.6 h | Vd/F (normal hepatic function): 660 ± 407 L | half-life (normal hepatic function): 32.8 ± 6.92 h | Tmax (normal hepatic function): 2 h | AUC(0-t) (severe hepatic impairment, read-out: AUC(0-24), Mean ± SD): 1100 ± 704 ng·h/mL | AUC(0-inf) (severe hepatic impairment): 1740 ± 1230 ng·h/mL | AUC(0-t) (severe hepatic impairment, read-out: AUC(0-t), Mean ± SD): 1680 ± 1190 ng·h/mL | Cmax (severe hepatic impairment): 110 ± 72.7 ng/mL | MRT inf (severe hepatic impairment): 29.2 h | Vd/F (severe hepatic impairment): 666 ± 479 L | half-life (severe hepatic impairment): 29.4 ± 8.38 h | Tmax (severe hepatic impairment): 3 h | CL/F, Mean ± SD (mild hepatic impairment): 15.50 ± 13.496 L/h | Cmax higher relative to normal group (mild hepatic impairment): 35% | tlag, Median (min, max) (mild hepatic impairment): 0.00 (0.0, 0.3) h | AUC(0-inf) Geometric Mean Ratio (90% CI), sensitivity analysis (mild vs normal): 0.94 (0.591, 1.504) | AUC(0-t) Geometric Mean Ratio (90% CI), sensitivity analysis (mild vs normal): 0.95 (0.591, 1.515) | Cmax Geometric Mean Ratio (90% CI), sensitivity analysis (mild vs normal): 1.38 (0.871, 2.200) | AUC0-t and AUC0-inf lower relative to normal group (moderate hepatic impairment): approximately 25% | CL/F, Mean ± SD (moderate hepatic impairment): 24.89 ± 25.914 L/h | Cmax lower relative to normal group (moderate hepatic impairment): 24% | mean CL/F higher compared to normal group (moderate hepatic impairment): 1.8 fold | mean Vz/F higher compared to normal group (moderate hepatic impairment): 1.6 fold | tlag, Median (min, max) (moderate hepatic impairment): 0.13 (0.0, 0.5) h | AUC(0-inf) Geometric Mean Ratio (90% CI), sensitivity analysis (moderate vs normal): 0.72 (0.414, 1.251) | AUC(0-t) Geometric Mean Ratio (90% CI), sensitivity analysis (moderate vs normal): 0.71 (0.403, 1.254) | Cmax Geometric Mean Ratio (90% CI), sensitivity analysis (moderate vs normal): 0.74 (0.389, 1.412) | CL/F, Mean ± SD (normal hepatic function): 14.05 ± 7.521 L/h | tlag, Median (min, max) (normal hepatic function): 0.00 (0.0, 0.3) h | time through which concentration was measurable in systemic circulation (postdose, all groups): 144 h | CL/F, Mean ± SD (severe hepatic impairment): 15.92 ± 8.507 L/h | tlag, Median (min, max) (severe hepatic impairment): 0.00 (0.0, 0.3) h | AUC(0-inf) Geometric Mean Ratio (90% CI), sensitivity analysis (severe vs normal): 0.94 (0.516, 1.702) | AUC(0-t) Geometric Mean Ratio (90% CI), sensitivity analysis (severe vs normal): 0.93 (0.512, 1.702) | Cmax Geometric Mean Ratio (90% CI), sensitivity analysis (severe vs normal): 1.04 (0.586, 1.854)
